# Assay results from PubChem BioAssay AID1259407 (Chemical Carcinogenesis Research Information System (CCRIS), 2018).
# Active and inactive are the calls of the source. How the calls were made is not given here.
# System: CCRIS mutagenicity, Ames/micronucleus/aberration tests
# Assay: CCRIS mutagenicity studies
# [1] = Test System: AMES SALMONELLA TYPHIMURIUM, Strain/Indicator: TA100, Metabolic Activation: NONE, Method: STANDARD PLATE
# [2] = Test System: AMES SALMONELLA TYPHIMURIUM, Strain/Indicator: TA100, Metabolic Activation: RAT, LIVER, S-9, AROCLOR 1254, Method: STANDARD PLATE
# [3] = Test System: AMES SALMONELLA TYPHIMURIUM, Strain/Indicator: TA98, Metabolic Activation: NONE, Method: STANDARD PLATE
# [4] = Test System: AMES SALMONELLA TYPHIMURIUM, Strain/Indicator: TA98, Metabolic Activation: RAT, LIVER, S-9, PHENOBARBITAL, Method: STANDARD PLATE
# [5] = Test System: AMES SALMONELLA TYPHIMURIUM, Strain/Indicator: TA100, Metabolic Activation: RAT, LIVER, S-9, PHENOBARBITAL, Method: STANDARD PLATE
# [6] = Test System: AMES SALMONELLA TYPHIMURIUM, Strain/Indicator: TA100, Metabolic Activation: NONE, Method: PREINCUBATION
smiles,measurement,setting,value
C=C(C)C1CCC2(C)OC2C1 (stereo not drawn),mutagenic call,[1],inactive; negative
same,mutagenic call,[2],inactive; negative
same,mutagenic call,"Test System: AMES SALMONELLA TYPHIMURIUM, Strain/Indicator: TA1535, Metabolic Activation: NONE, Method: STANDARD PLATE",inactive; negative
same,mutagenic call,"Test System: AMES SALMONELLA TYPHIMURIUM, Strain/Indicator: TA1535, Metabolic Activation: RAT, LIVER, S-9, AROCLOR 1254, Method: STANDARD PLATE",inactive; negative
same,mutagenic call,"Test System: UDS RAT HEPATOCYTES, Strain/Indicator: THY INCORP, Metabolic Activation: NONE",inactive; negative
Cc1cc(C)c2cc(C)c(N)cc2n1,mutagenic call,"Test System: AMES SALMONELLA TYPHIMURIUM, Strain/Indicator: TA98, Method: STANDARD PLATE",active; positive
Nc1cc(S(=O)(=O)O)cc2c1C(=O)/C(=N/Nc1ccc(-c3ccc(N/N=C4/C(=O)c5c(N)cc(S(=O)(=O)O)cc5C=C4S(=O)(=O)O)cc3)cc1)C(S(=O)(=O)O)=C2,mutagenic call,"End Point: IN VITRO CHROMOSOMAL ABERRATIONS, Test System: CHINESE HAMSTER OVARY CELLS, Metabolic Activation: NONE",inactive; negative
same,mutagenic call,"End Point: IN VITRO CHROMOSOMAL ABERRATIONS, Test System: CHINESE HAMSTER OVARY CELLS, Metabolic Activation: RAT, LIVER, S-9, AROCLOR 1254",inactive; negative
same,mutagenic call,"Test System: AMES SALMONELLA TYPHIMURIUM, Strain/Indicator: TA98, Metabolic Activation: HAMSTER, LIVER, S-9, Method: PREINCUBATION (PRIVAL METHOD)",active; positive
same,mutagenic call,[3],inactive; negative
same,mutagenic call,[4],inactive; negative
same,mutagenic call,"Test System: AMES SALMONELLA TYPHIMURIUM, Strain/Indicator: TA100, Metabolic Activation: HAMSTER, LIVER, S-9, Method: PREINCUBATION (PRIVAL METHOD)",active; positive
same,mutagenic call,[1],active; positive
same,mutagenic call,[5],inactive; negative
same,mutagenic call,"Test System: AMES SALMONELLA TYPHIMURIUM, Strain/Indicator: TA1538, Metabolic Activation: RAT, LIVER, S-9, AROCLOR 1254, Method: STANDARD PLATE",inactive; negative
same,mutagenic call,"Test System: Mouse lymphoma, Strain/Indicator: L5178Y (tk+/tk-), Metabolic Activation: None, Method: Suspension/plate",inactive; negative
same,mutagenic call,"Test System: Mouse lymphoma, Strain/Indicator: L5178Y (tk+/tk-), Metabolic Activation: Rat, Liver, S-9, Aroclor 1254, Method: Suspension/plate",inactive; equivocal (previous results negative)
NNc1nncc2cccnc12,mutagenic call,"Test System: AMES SALMONELLA TYPHIMURIUM, Strain/Indicator: TA98, Metabolic Activation: NONE, Method: PREINCUBATION",active; positive
same,mutagenic call,"Test System: AMES SALMONELLA TYPHIMURIUM, Strain/Indicator: TA98, Metabolic Activation: RAT, LIVER, S-9, PCB, Method: PREINCUBATION",active; positive
same,mutagenic call,[6],active; positive
same,mutagenic call,"Test System: AMES SALMONELLA TYPHIMURIUM, Strain/Indicator: TA100, Metabolic Activation: RAT, LIVER, S-9, PCB, Method: PREINCUBATION",active; positive
O=[N+]([O-])c1cccc2c1[nH]c1ccccc12,mutagenic call,[3],active; positive
same,mutagenic call,"Test System: AMES SALMONELLA TYPHIMURIUM, Strain/Indicator: TA98, Metabolic Activation: RAT, LIVER, S-9, AROCLOR 1254, Method: STANDARD PLATE",active; positive
same,mutagenic call,[4],active; positive
same,mutagenic call,[1],inactive; negative
same,mutagenic call,[5],inactive; negative
same,mutagenic call,"Test System: AMES SALMONELLA TYPHIMURIUM, Strain/Indicator: TA1538, Metabolic Activation: NONE, Method: STANDARD PLATE",active; positive
same,mutagenic call,"Test System: AMES SALMONELLA TYPHIMURIUM, Strain/Indicator: TA1538, Metabolic Activation: RAT, LIVER, S-9, PHENOBARBITAL, Method: STANDARD PLATE",active; positive
same,mutagenic call,"Test System: AMES SALMONELLA TYPHIMURIUM, Strain/Indicator: TA1977, Metabolic Activation: NONE, Method: STANDARD PLATE",inactive; negative
same,mutagenic call,"Test System: AMES SALMONELLA TYPHIMURIUM, Strain/Indicator: TA1977, Metabolic Activation: RAT, LIVER, S-9, PHENOBARBITAL, Method: STANDARD PLATE",inactive; negative
OCc1c2ccccc2cc2c1ccc1ccccc12,mutagenic call,[3],active; positive
same,mutagenic call,"Test System: AMES SALMONELLA TYPHIMURIUM, Strain/Indicator: TA98, Metabolic Activation: RAT, LIVER, S-9, 3'-PHOSPHOADENOSINE 5'-PHOSPHOSULFATE GENERATING SYSTEM, Method: PREINCUBATION",active; positive
same,mutagenic call,"Test System: AMES SALMONELLA TYPHIMURIUM, Strain/Indicator: TA98, Metabolic Activation: RAT, LIVER, S-9, NADPH GENERATING SYSTEM, Method: PREINCUBATION",active; positive
same,mutagenic call,"Test System: AMES SALMONELLA TYPHIMURIUM, Strain/Indicator: TA98, Metabolic Activation: RAT, LIVER, S-105, 3'-PHOSPHOADENOSINE 5'-PHOSPHOSULFATE GENERATING SYSTEM, Method: PREINCUBATION",active; positive
C=C(C)C(=O)/C(=C\C(=O)O)OC,mutagenic call,[3],inactive; negative
same,mutagenic call,"Test System: AMES SALMONELLA TYPHIMURIUM, Strain/Indicator: TA98, Metabolic Activation: RAT LIVER S-9, DELOREM 103, Method: STANDARD PLATE",inactive; negative
same,mutagenic call,"Test System: AMES SALMONELLA TYPHIMURIUM, Strain/Indicator: TA98, Metabolic Activation: RAT, LIVER, MICROSOMES, PHENOBARBITAL, Method: STANDARD PLATE",inactive; negative
same,mutagenic call,[6],inactive; negative
same,mutagenic call,[1],inactive; negative
same,mutagenic call,"Test System: AMES SALMONELLA TYPHIMURIUM, Strain/Indicator: TA100, Metabolic Activation: RAT LIVER S-9, DELOREM 103, Method: STANDARD PLATE",inactive; negative
same,mutagenic call,"Test System: AMES SALMONELLA TYPHIMURIUM, Strain/Indicator: TA100, Metabolic Activation: RAT, LIVER, MICROSOMES, PHENOBARBITAL, Method: STANDARD PLATE",inactive; negative
same,mutagenic call,"Test System: AMES SALMONELLA TYPHIMURIUM, Strain/Indicator: TA100, Metabolic Activation: RAT, LIVER, S-9, PHENOBARBITAL, Method: PREINCUBATION",inactive; negative
CC1=Cc2nc3c(ccc4ccccc43)c(C)c2[C@H](O)[C@H]1O,mutagenic call,[2],active; positive
